{
  "source": "ChEMBL document CHEMBL1201862",
  "about": "“PubChem BioAssay data set” (2004)",
  "assay_in_all_cases": "inhibition of tumour cell growth, NCI panel, 48 h",
  "key": {"HT-29": {"system": "HT-29"}, "HOP-62": {"system": "HOP-62"}, "HOP-92": {"system": "HOP-92"}, "HCT-116": {"system": "HCT-116"}, "SNB-75": {"system": "SNB-75"}, "SNB-78": {"system": "SNB-78"}, "SF-539": {"system": "SF-539"}, "NCI-H522": {"system": "NCI-H522"}, "Malme-3M": {"system": "Malme-3M"}, "EKVX": {"system": "EKVX"}, "SK-MEL-5": {"system": "SK-MEL-5"}, "UACC-257": {"system": "UACC-257"}, "SW-620": {"system": "SW-620"}, "SF-295": {"system": "SF-295"}, "UO-31": {"system": "UO-31"}, "HOP-18": {"system": "HOP-18"}, "KM12": {"system": "KM12"}, "LOX IMVI": {"system": "LOX IMVI"}, "NCI-H460": {"system": "NCI-H460"}, "M19-MEL": {"system": "M19-MEL"}, "OVCAR-5": {"system": "OVCAR-5"}, "TK-10": {"system": "TK-10"}, "A549": {"system": "A549"}, "LXFL 529": {"system": "LXFL 529"}, "RXF 393": {"system": "RXF 393"}, "SK-OV-3": {"system": "SK-OV-3"}, "ACHN": {"system": "ACHN"}, "KM-20L2": {"system": "KM-20L2"}, "SK-MEL-2": {"system": "SK-MEL-2"}, "M14": {"system": "M14"}, "HCT-15": {"system": "HCT-15"}, "CCRF-CEM": {"system": "CCRF-CEM"}, "HL-60": {"system": "HL-60"}, "DLD-1": {"system": "DLD-1"}, "UACC-62": {"system": "UACC-62"}, "SK-MEL-28": {"system": "SK-MEL-28"}, "MOLT-4": {"system": "MOLT-4"}, "OVCAR-8": {"system": "OVCAR-8"}, "SN12C": {"system": "SN12C"}, "HCC 2998": {"system": "HCC 2998"}, "OVCAR-4": {"system": "OVCAR-4"}, "OVCAR-3": {"system": "OVCAR-3"}, "SR": {"system": "SR"}, "NCI-H23": {"system": "NCI-H23"}, "U-251": {"system": "U-251"}, "K562": {"system": "K562"}, "SF-268": {"system": "SF-268"}, "SNB-19": {"system": "SNB-19"}, "786-0": {"system": "786-0"}, "RPMI-8226": {"system": "RPMI-8226"}, "DMS-273": {"system": "DMS-273"}, "COLO 205": {"system": "COLO 205"}, "A498": {"system": "A498"}, "DMS-114": {"system": "DMS-114"}},
  "note": "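48-hour exposure; five concentrations; linearly interpolated endpoints. Abbreviation: GI50, concentration required for 50% inhibition of growth.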 The source made the active and inactive calls. Rule as the data show it: active = GI50 up to about 1.1 µM and inactive = higher.",
  "data": [
    {"compound": "COc1ccc(/C=c2\\sc3n(c2=O)CCN=3)cc1", "values": [
      {"measurement": "GI50", "setting": "HT-29", "value": "> 100 µM (inactive)"},
      {"measurement": "GI50", "setting": "HOP-62", "value": "> 100 µM (inactive)"},
      {"measurement": "GI50", "setting": "HOP-92", "value": "29.8 µM (inactive)"},
      {"measurement": "GI50", "setting": "HCT-116", "value": "> 100 µM (inactive)"},
      {"measurement": "GI50", "setting": "SNB-75", "value": "57.8 µM (inactive)"},
      {"measurement": "GI50", "setting": "SNB-78", "value": "> 100 µM (inactive)"},
      {"measurement": "GI50", "setting": "SF-539", "value": "> 100 µM (inactive)"},
      {"measurement": "GI50", "setting": "NCI-H522", "value": "84.5 µM (inactive)"},
      {"measurement": "GI50", "setting": "Malme-3M", "value": "39.1 µM (inactive)"},
      {"measurement": "GI50", "setting": "EKVX", "value": "> 100 µM (inactive)"},
      {"measurement": "GI50", "setting": "SK-MEL-5", "value": "80 µM (inactive)"},
      {"measurement": "GI50", "setting": "UACC-257", "value": "47.5 µM (inactive)"},
      {"measurement": "GI50", "setting": "SW-620", "value": "> 100 µM (inactive)"},
      {"measurement": "GI50", "setting": "SF-295", "value": "> 100 µM (inactive)"},
      {"measurement": "GI50", "setting": "UO-31", "value": "> 100 µM (inactive)"},
      {"measurement": "GI50", "setting": "HOP-18", "value": "88.3 µM (inactive)"},
      {"measurement": "GI50", "setting": "KM12", "value": "> 100 µM (inactive)"},
      {"measurement": "GI50", "setting": "LOX IMVI", "value": "64.7 µM (inactive)"},
      {"measurement": "GI50", "setting": "NCI-H460", "value": "> 100 µM (inactive)"},
      {"measurement": "GI50", "setting": "M19-MEL", "value": "> 100 µM (inactive)"},
      {"measurement": "GI50", "setting": "OVCAR-5", "value": "> 100 µM (inactive)"},
      {"measurement": "GI50", "setting": "TK-10", "value": "> 100 µM (inactive)"},
      {"measurement": "GI50", "setting": "A549", "value": "> 100 µM (inactive)"},
      {"measurement": "GI50", "setting": "LXFL 529", "value": "> 100 µM (inactive)"},
      {"measurement": "GI50", "setting": "RXF 393", "value": "31.1 µM (inactive)"},
      {"measurement": "GI50", "setting": "SK-OV-3", "value": "> 100 µM (inactive)"},
      {"measurement": "GI50", "setting": "ACHN", "value": "> 100 µM (inactive)"},
      {"measurement": "GI50", "setting": "KM-20L2", "value": "> 100 µM (inactive)"},
      {"measurement": "GI50", "setting": "SK-MEL-2", "value": "> 100 µM (inactive)"},
      {"measurement": "GI50", "setting": "M14", "value": "> 100 µM (inactive)"},
      {"measurement": "GI50", "setting": "HCT-15", "value": "> 100", "unit": "µM"},
      {"measurement": "GI50", "setting": "CCRF-CEM", "value": "96.2 µM (inactive)"},
      {"measurement": "GI50", "setting": "HL-60", "value": "69.3 µM (inactive)"},
      {"measurement": "GI50", "setting": "DLD-1", "value": "> 100 µM (inactive)"},
      {"measurement": "GI50", "setting": "UACC-62", "value": "> 100 µM (inactive)"},
      {"measurement": "GI50", "setting": "SK-MEL-28", "value": "> 100 µM (inactive)"},
      {"measurement": "GI50", "setting": "MOLT-4", "value": "68.5 µM (inactive)"},
      {"measurement": "GI50", "setting": "OVCAR-8", "value": "> 100 µM (inactive)"},
      {"measurement": "GI50", "setting": "SN12C", "value": "75.7 µM (inactive)"},
      {"measurement": "GI50", "setting": "HCC 2998", "value": "62.4 µM (inactive)"},
      {"measurement": "GI50", "setting": "OVCAR-4", "value": "> 100 µM (inactive)"},
      {"measurement": "GI50", "setting": "OVCAR-3", "value": "> 100 µM (inactive)"},
      {"measurement": "GI50", "setting": "SR", "value": "> 100 µM (inactive)"},
      {"measurement": "GI50", "setting": "NCI-H23", "value": "> 100 µM (inactive)"},
      {"measurement": "GI50", "setting": "U-251", "value": "> 100 µM (inactive)"},
      {"measurement": "GI50", "setting": "K562", "value": "43.7 µM (inactive)"}
    ]},
    {"compound": "C/N=C(\\S)N/N=C/C(C)=N/N/C(S)=N/C", "values": [
      {"measurement": "GI50", "setting": "HOP-62", "value": "> 100 µM (inactive)"},
      {"measurement": "GI50", "setting": "HCT-116", "value": "0.0489 µM (active)"},
      {"measurement": "GI50", "setting": "SNB-78", "value": "> 100 µM (inactive)"},
      {"measurement": "GI50", "setting": "SF-268", "value": "> 100 µM (inactive)"},
      {"measurement": "GI50", "setting": "SF-539", "value": "> 100 µM (inactive)"},
      {"measurement": "GI50", "setting": "SNB-19", "value": "> 100 µM (inactive)"},
      {"measurement": "GI50", "setting": "NCI-H522", "value": "> 100 µM (inactive)"},
      {"measurement": "GI50", "setting": "786-0", "value": "> 100 µM (inactive)"},
      {"measurement": "GI50", "setting": "Malme-3M", "value": "> 100 µM (inactive)"},
      {"measurement": "GI50", "setting": "EKVX", "value": "> 100 µM (inactive)"},
      {"measurement": "GI50", "setting": "RPMI-8226", "value": "583 nM (active)"},
      {"measurement": "GI50", "setting": "SK-MEL-5", "value": "> 100 µM (inactive)"},
      {"measurement": "GI50", "setting": "DMS-273", "value": "> 100 µM (inactive)"},
      {"measurement": "GI50", "setting": "COLO 205", "value": "> 100 µM (inactive)"},
      {"measurement": "GI50", "setting": "SW-620", "value": "> 100 µM (inactive)"},
      {"measurement": "GI50", "setting": "SF-295", "value": "> 100 µM (inactive)"},
      {"measurement": "GI50", "setting": "UO-31", "value": "> 100 µM (inactive)"},
      {"measurement": "GI50", "setting": "HOP-18", "value": "> 100 µM (inactive)"},
      {"measurement": "GI50", "setting": "KM12", "value": "> 100 µM (inactive)"},
      {"measurement": "GI50", "setting": "LOX IMVI", "value": "> 100 µM (inactive)"},
      {"measurement": "GI50", "setting": "NCI-H460", "value": "> 100 µM (inactive)"},
      {"measurement": "GI50", "setting": "M19-MEL", "value": "> 100 µM (inactive)"},
      {"measurement": "GI50", "setting": "A498", "value": "48.2 µM (inactive)"},
      {"measurement": "GI50", "setting": "OVCAR-5", "value": "0.843 µM (active)"},
      {"measurement": "GI50", "setting": "TK-10", "value": "> 100 µM (inactive)"},
      {"measurement": "GI50", "setting": "A549", "value": "> 100 µM (inactive)"},
      {"measurement": "GI50", "setting": "RXF 393", "value": "> 100 µM (inactive)"},
      {"measurement": "GI50", "setting": "SK-OV-3", "value": "> 100 µM (inactive)"},
      {"measurement": "GI50", "setting": "ACHN", "value": "> 100 µM (inactive)"},
      {"measurement": "GI50", "setting": "KM-20L2", "value": "0.631 µM (active)"},
      {"measurement": "GI50", "setting": "DMS-114", "value": "41.4 nM (active)"},
      {"measurement": "GI50", "setting": "SK-MEL-2", "value": "> 100 µM (inactive)"},
      {"measurement": "GI50", "setting": "M14", "value": "> 100 µM (inactive)"},
      {"measurement": "GI50", "setting": "HCT-15", "value": "> 100", "unit": "µM"},
      {"measurement": "GI50", "setting": "UACC-62", "value": "> 100 µM (inactive)"},
      {"measurement": "GI50", "setting": "SK-MEL-28", "value": "> 100 µM (inactive)"},
      {"measurement": "GI50", "setting": "MOLT-4", "value": "0.323 µM (active)"},
      {"measurement": "GI50", "setting": "SN12C", "value": "> 100 µM (inactive)"},
      {"measurement": "GI50", "setting": "HCC 2998", "value": "> 100 µM (inactive)"},
      {"measurement": "GI50", "setting": "OVCAR-3", "value": "> 100 µM (inactive)"},
      {"measurement": "GI50", "setting": "NCI-H23", "value": "> 100 µM (inactive)"},
      {"measurement": "GI50", "setting": "U-251", "value": "> 100 µM (inactive)"}
    ]}
  ]
}
